Measurements from PMC3749181, “Rapid Identification of Antifungal Compounds against Exserohilum rostratum Using High Throughput Drug Repurposing Screens” (PLoS ONE, 2013).
Read-outs that look alike come from different tables or passages of the source.

Experiments:
[1] = tested on: E. rostratum conidia; test: conidia growth inhibition ATP content assay (RPMI, 1536-well); type: cell-based, Exserohilum rostratum; settings: for IC50: read-out: Conidia IC50; for Conidia IC50: Inact. = no significant activity at the highest compound concentration (46 µM)
Protocol: (§1) Conidia and hyphae of E. rostratum were obtained as described by Richard et al., with the following modifications. Briefly, conidia were harvested from Potato Dextrose Agar (PDA) cultured media with 0.05% Tween 80, and the conidial suspension was filtered using a Cell Strainer (100 µm, BD Falcon REF 352340). After centrifugation at 700g for 10 min, the suspension was decanted and conidia were resuspended at 1×10^5 per ml in RPMI and counted in a hemocytometer. Hyphae were harvested from yeast extract peptone dextrose (YPD) culture media with 0.05% Tween 80. Hyphal fragments were sized by vortexing 15 sec twice with 0.4 mm glassbeads, and the hyphae suspension was filtered by cheese cloth twice. […] To normalize concentrations of hyphal fragments for batch to batch consistency, carbohydrate analysis was performed by a phenol-sulfuric acid method as previously described. The final stock concentration of hyphae was adjusted to 1.0 (OD490) per 100 µl.
(§2) The ATPLite assay kit, consisting of luciferase/luciferin and detergent, was used to quantitate cellular ATP levels as a marker for cell viability (Table 1). For assay development, hyphal fragments or conidia in PBS were plated in a seeding density of 3,750, 7,500 and 15,000 cellular particles/well with a final volume of 5 µl/well using the Multidrop-Combi dispenser in white 1536-well plates. Conidia or hyphae fragments were incubated for 24 h at 37°C in a 5% CO2 humidified atmosphere. ATPLite detection reagents were added at 4 µl/well. The assay plates were incubated at room temperature for 15 minutes before reading luminescence intensity on a ViewLux plate reader (Perkin Elmer, Waltham, MA). Conidia suspended in RPMI medium were inoculated at concentrations of 62.5, 125 and 250 conidia/well with a final volume of 5 µl/well in white 1536-well plates. The conidia assay was developed and optimized in the same way as the hyphal assay.
(§3) The LOPAC library (Sigma-Aldrich) has been extensively used for HTS assay validations, [18]. The NIH Chemical Genomics Center Pharmaceutical (NPC) collection was constructed in-house through a combined effort of compound purchasing and custom synthesis and recently expanded to 4096 compounds. […] 2.5 µl/well PBS was dispensed into 1536-well plates using a Multidrop-Combi dispenser. Compound in DMSO solution was transferred in a volume of 23 nl/well using a NX-TR pintool station (WAKO Scientific Solutions, San Diego, CA). This additional PBS step for compound addition was designed to prevent the potential fungal contamination of compound libraries. The hyphal fragments in PBS were then added at 2.5 µl/well for a final seeding density of 15,000 hyphal fragments/well using the Multidrop-Combi dispenser. The final compound concentration was 46 µM in the primary screen. The assay plates were incubated for 24 h at 30°C before the detection of cellular viability with the ATP content assay. Screen of conidia was performed in a similar way except that PBS was replaced with RPMI medium and conidia were plated for a final seeding density of 250 conidia/well.
(§4) The primary screen data and curve fitting were analyzed using software developed internally at the NIH Chemical Genomics Center (NCGC). Total signals for cellular viability (100% cellular viability) were calculated from the wells with DMSO solvent and the complete cell killing (0% cellular viability) was calculated from 46 µM amphotericin B treated wells. […] All values were expressed as the mean +/− SD (n≥3).

[2] = tested on: E. rostratum hyphal fragments; test: hyphal fragment fungicidal ATP content assay (PBS, 1536-well); type: cell-based, Exserohilum rostratum; settings: for Emax / Hyphae % M. Res. / Hyphae % Max. Resp.: 46 µM Amphotericin B = 100%; for IC50: read-out: Hyphae IC50
Protocol: as §1, §2, §3, §4

[3] = tested on: SH-SY5Y cells; test: SH-SY5Y cytotoxicity counter-screen (ATP content assay); type: cell-based, Human; settings: for SH-SY5Y % Max. Resp.: Table 2, SH-SY5Y, inact. = no significant activity at 46 µM; for SH-SY5Y % M. Res. / SH-SY5Y IC50: Table S1; for SH-SY5Y % M. Res.: Inact. = no significant activity at 46 µM; for SH-SY5Y IC50: Inact. = no significant activity at the highest compound concentration (46 µM)
Protocol: Human neuroblastoma SH-SY5Y cell line (Catalog No. CRL-2266) was purchased from ATCC (Manassas, VA). SH-SY5Y cell line was cultured in 175-cm^2 tissue culture flasks (Costar, Cambridge, MA) with 30 ml of growth medium at 37°C in a 5% CO2 humidified atmosphere. Growth medium was made with Dulbecco's Modified Eagle Medium: Nutrient Mixture F-12 with 10% fetal bovine serum (FBS). Growth medium was replaced every other day and cells were passed at 75% confluence.
as §2
Two small known compound libraries including the LOPAC (1280 compounds) and approved drugs (4096 compounds) were screened in parallel using the above optimized assays for hyphae and conidia in 1536-well plates (Fig. 4). […] A mammalian SH-SY5Y cell line was used in parallel as a counter-screen with the same ATP content assay kit to assess the specificity of these compounds for E. rostratum.

[4] = Exserohilum rostratum, 24 h, Table 2, 24 h, inact. = no significant activity at the highest compound concentration (46 µM)
[5] = Exserohilum rostratum, Table 2, 46 µM Amphotericin B = 100%, inact. = no significant activity at 46 µM, read-out: Conidia % Max. Resp.
[6] = Exserohilum rostratum, Table 2, inact. = no significant activity in the primary screen, read-out: Hyphae % Max. Resp.
[7] = Exserohilum rostratum, Table 2, 24 h, inact. = no significant activity in the primary screen
[8] = Table S1, 46 µM Amphotericin B = 100%, Inact. = no significant activity at 46 µM
[9] = Table S1, Inact. = no significant activity in the primary screen
[10] = Table 2, inact. = no significant activity in the primary screen
[11] = Table 2, 24 h, inact. = no significant activity in the primary screen
[12] = Exserohilum rostratum, Table S1, Inact. = no significant activity in the primary screen, read-out: Hyphae % M. Res.

SMILES | Emax [1, 5] [%] | SH-SY5Y % Max. Resp. ([3]; 46 µM Amphotericin B = 100%) | SH-SY5Y % Max. Resp. [3] | Conidia % M. Res. [1, 8] | Conidia IC50 ([1]; Table S1) | Hyphae % M. Res. [2, 9] | Hyphae IC50 [2, 9] | SH-SY5Y % M. Res. ([3]; 46 µM Amphotericin B = 100%) | SH-SY5Y IC50 [3] | other results
C=CCOC(Cn1ccnc1)c1ccc(Cl)cc1Cl (stereo not drawn) [Enilconazole] | 102 | inact. | inact. |  |  |  |  |  |  | IC50 [1, 4]: 1.72 µM; Emax [2, 6]: 73%; IC50 [2, 7]: 0.312 µM
CCCCCCOc1ccccc1C(N)=O [Exalamide] |  |  |  | Inact. | Inact. | Inact. | Inact. | Inact. | Inact. | 
Oc1ccc(Cl)cc1Sc1cc(Cl)ccc1O [Fenticlor] | 107 | inact. | inact. |  |  |  |  |  |  | IC50 ([1]; Exserohilum rostratum, 24 h): 5.72 µM; Hyphae % Max. Resp. [2, 10]: inact.; Hyphae IC50 [2, 11]: inact.
Cc1ccc(/C=N/n2c(-c3ccccc3)csc2=S)cc1 [Fezatione] |  |  |  | Inact. | Inact. | Inact. | Inact. | Inact. | Inact. | 
OC(Cn1cncn1)(Cn1cncn1)c1ccc(F)cc1F [Fluconazole] |  |  |  | Inact. | Inact. | Inact. | Inact. | Inact. | Inact. | activity in the conidia assay ([1]; concentrations up to 46 µM): no activity; activity in the hyphae assay ([2]; concentrations up to 46 µM): no activity
Nc1[nH]c(=O)ncc1F [Flucytosine] |  |  |  | Inact. | Inact. | Inact. | Inact. | Inact. | Inact. | 
O=P(O)(O)OC(Cn1cncn1)(Cn1cncn1)c1ccc(F)cc1F [Fosfluconazole] |  |  |  | Inact. | Inact. | Inact. | Inact. | Inact. | Inact. | 
COC1=CC(=O)C[C@@H](C)[C@]12Oc1c(Cl)c(OC)cc(OC)c1C2=O [Griseofulvin] |  |  |  | Inact. | Inact. | Inact. | Inact. | Inact. | Inact. | 
Oc1c(Cl)cc(Cl)c(Cl)c1Cc1c(O)c(Cl)cc(Cl)c1Cl [Hexachlorophene] |  | inact. | inact. |  |  |  |  |  |  | IC50 ([1]; Exserohilum rostratum, 24 h): 3.97 µM; Emax ([1]; Exserohilum rostratum, read-out: Conidia % Max. Resp.): 109%; Hyphae % Max. Resp. [2, 10]: inact.; Hyphae IC50 [2, 11]: inact.
Oc1c(I)cc(I)c2cccnc12 [Iodoquinol] | 99 | 58% | 26.3% |  |  |  |  |  |  | IC50 [1, 4]: 2.75 µM; Hyphae % Max. Resp. [2, 10]: inact.; Hyphae IC50 [2, 11]: inact.
CC(=O)N1CCN(c2ccc(OCC3COC(Cn4ccnc4)(c4ccc(Cl)cc4Cl)O3)cc2)CC1 (stereo not drawn) [Ketoconazole] | 101 | inact. | inact. |  |  |  |  | Inact. | Inact. | IC50 [1, 4]: 3.47 µM; Emax ([1]; Exserohilum rostratum, Table S1, 46 µM Amphotericin B = 100%, Inact. = no significant activity at 46 µM, read-out: Conidia % M. Res.): 101%; Emax [2, 6]: 74%; IC50 [2, 7]: 2.38 µM; Emax [2, 12]: 74%
CCCCCCC(=O)CCCCCC/C=C/C[C@@H](O)[C@H](O)[C@@](N)(CO)C(=O)O [Myriocin] | 92 | inact. | inact. |  |  |  |  |  |  | IC50 [1, 4]: 13.6 µM; Emax [2, 6]: 81%; IC50 [2, 7]: 2.75 µM
C[C@@H]1C/C=C/C=C/C=C/C=C/[C@H](O[C@@H]2O[C@H](C)[C@@H](O)[C@H](N)[C@@H]2O)C[C@@H]2O[C@](O)(C[C@@H](O)C[C@H]3O[C@@H]3/C=C/C(=O)O1)C[C@H](O)[C@H]2C(=O)O [Natamycin] |  |  |  | Inact. | Inact. |  |  | Inact. | Inact. | Emax [2, 12]: 66%; IC50 ([2]; Exserohilum rostratum, Table S1, Inact. = no significant activity in the primary screen): 46.9 µM
CC1(C)CCC(NC(=O)[C@@H](N)CCC(=O)O)CC1 [Neboglamine] |  |  |  | Inact. | Inact. | Inact. | Inact. | Inact. | Inact. | 
O=C1[O][Pt]2([NH][C@@H]3CCCC[C@H]3[NH]2)[O]C1=O [Oxaliplatin] |  | inact. | inact. |  |  |  |  |  |  | Conidia % Max. Resp. ([1]; Table 2, 46 µM Amphotericin B = 100%, inact. = no significant activity at 46 µM): 95%; IC50 [1]: 4.95 µM; Hyphae % Max. Resp. [2, 10]: 76%; IC50 [2, 11]: 0.935 µM
